Data reported in ChEMBL document CHEMBL5344471, “64Cu-Labeled Boron-Containing Cyclic RGD Peptides for BNCT and PET Imaging” (ACS Med Chem Lett, 2024).
Activity calls are given as the source filed them. No cut-off for these calls is given here.

Columns and labels:
[1] = Biodistribution in Balb/c mouse xenografted with human U-87 MG cells by measuring ratio of boron concentration in tumor to liver at 0.04 mmol,iv administrated for 1 hr by ICP-MS analysis; format: ADME, organism-based; conditions: in vivo
[2] = Biodistribution in Balb/c mouse xenografted with human U-87 MG cells by measuring ratio of boron concentration in tumor to muscle at 0.04 mmol,iv administrated for 1 hr by ICP-MS analysis; format: ADME, organism-based; conditions: in vivo
U-87 MG = experiment: Cytotoxicity against human U-87 MG cells at 10 to 400 uM incubated for 24 hrs by CCK-8 assay; format: functional, cell-based; conditions: U-87MG ATCC, dose 10-400 µM
[3] = Biodistribution in Balb/c mouse xenografted with human U-87 MG cells by measuring ratio of boron concentration in tumor to kidney at 0.04 mmol,iv administrated for 1 hr by ICP-MS analysis; format: ADME, organism-based; conditions: in vivo
[4] = Biodistribution in Balb/c mouse xenografted with human U-87 MG cells by measuring ratio of boron concentration in tumor to brain at 0.04 mmol,iv administrated for 1 hr by ICP-MS analysis; format: ADME, organism-based; conditions: in vivo

N=C(N)NCCC[C@@H]1NC(=O)[C@H](CCCCN)NC(=O)[C@@H](Cc2ccc(B(O)O)cc2)NC(=O)[C@H](CC(=O)O)NC(=O)CNC1=O
Ratio [1]: 2.5
Ratio [2]: 2.41
Activity (U-87 MG): inactive
Ratio [3]: 0.43
Ratio [4]: 13.4
